# System: Cell-based prion protein 5' UTR reporter, plate reader
# Experiment: prion protein 5' UTR mRNA inhibitors – cell-based, plate reader, cherry-picked samples, dose response (AID 504539)
row,SMILES,AC50 [nM]
1,CN1CCN(c2ccc(-c3ccc4ccccc4n3)cc2)CC1,113
2,O=C(NC1CCCCC1)c1n[nH]c2c1CCCCC2,759
3,COc1ccc(CCc2cc(OC)c(OC)c(OC)c2)cc1,40
4,C[C@@H]1O[C@@H](O[C@@H]2C=C3CCC4C(CC[C@]5(C)[C@@H](c6ccc(=O)oc6)CC[C@]45O)[C@@]3(C)CC2)[C@H](O)[C@H](O)[C@H]1O (some centres not stated),< 38
5,CCC1CN2CCc3cc(OC)c(OC)cc3C2CC1CC1NCCc2c1[nH]c1ccc(O)cc21 (configuration not stated),216
6,CC(C)Oc1ccc(C(=O)Nc2nc3ccccc3[nH]2)cc1,304
7,COc1ccccc1-c1nnc2n1N=C(c1ccc(O)c(O)c1)CS2,206
8,Cc1cc(C=C2C(=O)c3ccccc3C2=O)c(C)n1-c1ccccc1,809
9,CCOc1ncccc1C(=O)N1CCN(c2cccc(C)c2C)CC1,517
10,c1ccc(-c2noc(-c3ccc4ccccc4c3)n2)nc1,158
11,CC1CCOC(=O)C=CC=CC(=O)OC2CC3OC4C5OC5(C)C(O)CC4(COC(=O)C1O)C2(C)C31CO1 (configuration not stated),148
12,COc1ccc(/C=C2\SC(=S)N(CCCC(=O)NNC(=O)c3ccccc3O)C2=O)cc1,630
13,Cc1nn(-c2ccccc2)c2c1CC(=O)Nc1ccccc1-2,1960
14,Cc1ccc(NC(=O)/C=C/c2ccco2)nc1,287
15,O=c1c2ccccc2cnn1-c1nc2ccccc2[nH]1,185
16,COc1cc(/C=N/O)ccc1OCc1ccc(C(=O)O)cc1,226
17,CC1CCCC=CC2CC(OC(=O)CN(C)C)CC2C(O)C=CC(=O)O1 (configuration not stated),126
18,COc1ccc(C(=O)Nc2ccc(C)cn2)c(OC)c1,280
19,Cn1ncnc2c(=O)n(C)c(=O)nc1-2,135
20,CC(=O)OC(C)(C)/C=C/C(=O)[C@](C)(O)[C@H]1[C@H](O)C[C@@]2(C)[C@@H]3CC=C4[C@H](C[C@H](O)C(=O)C4(C)C)[C@]3(C)C(=O)C[C@]12C,< 38
21,CCOC(=O)c1[nH]c2c(c1C)C(=O)CC(c1ccco1)C2 (configuration not stated),360
22,O=C1C(=C2SCCCS2)CC/C1=C\c1ccc(F)cc1,292
23,CCOC(=O)c1c(C)[nH]c(C(=O)N/N=C/c2ccc(Br)cc2)c1C,378
24,CC(C)(C)C(=O)Nc1cc2nn(-c3ccccc3)nc2cc1Cl,< 38
25,Cc1ccc(-c2nnc(SCC(=O)Nc3ccccc3F)o2)cc1,284
26,CCSc1nc(-c2ccccc2)nc(C(Cl)Cl)n1,1060

row,SMILES,AC50 [nM]
1,Cc1ccc(C(=O)Nc2cnc3ccccc3c2)cc1,94
2,CC[C@@H](C)[C@H](C(CC(=O)N1CCCC1[C@@H](OC)[C@H](C)C(=O)N[C@H](Cc1ccccc1)c1nccs1)OC)N(C)C(=O)[C@H](NC(=O)[C@@H](C(C)C)N(C)C)C(C)C (some centres not stated),117
3,CN(C)c1ccc(/C=N/Nc2cccc(C(=O)O)c2)cc1,547
4,COC(=O)c1ccc(Oc2cc(C)nc(-n3nc(C)cc3C)n2)cc1,536
5,COc1cc(C(=O)N2CCN(c3cc(Cl)ccc3Cl)CC2)cc(OC)c1OC,1120
6,O=C(Nc1ccc(N2CCOCC2)cc1)c1cnsn1,486
7,Cc1cccc(-n2ncc3c(N(C)C4CCCCC4)ncnc32)c1,796
8,C[C@@H]1O[C@@H](O[C@H]2C[C@@H](O)[C@]3(CO)[C@H]4[C@H](O)C[C@]5(C)[C@@H](C6COC(=O)C6)CC[C@]5(O)[C@@H]4CC[C@]3(O)C2)[C@H](O)[C@H](O)[C@H]1O (some centres not stated),915
9,O=C(/C=C/Nc1ccccc1Br)c1ccccn1,281
10,Cc1ccc(/C=N/NC(=O)COc2ccccc2-c2ccccc2)cc1,172
11,C[C@]12CCC3C(CCC4=CC(O)CC[C@@]43/C=N/O)C1(O)CCC2C1=CC(=O)OC1 (some centres not stated),308
12,O=c1c2ccccc2cnn1CCOc1ccccc1,354
13,COC1C=CC=C(C)C(=O)NC2=CC(=O)C(N)=C(CC(C)CC(OC)C(O)C(C)C=C(C)C1OC(N)=O)C2=O (configuration not stated),< 38
14,Nc1ccc(-c2ncc(-c3ccccc3)o2)cc1,145
15,O=C(Nc1nc2ccccc2[nH]1)c1ccccc1F,210
16,O=C1/C(=C\c2ccc([N+](=O)[O-])cc2)CS(=O)(=O)C/C1=C/c1ccc([N+](=O)[O-])cc1,2060
17,O=C(CN1C(=O)c2ccccc2S1(=O)=O)c1ccc(Cl)cc1Cl,181
18,COc1ccc(/C=N/NC(=O)c2cc3c(OC)ccc(OC)c3[nH]2)cc1O,1340
19,COCCCN=C1NN=C(c2cc(C)n(Cc3ccco3)c2C)CS1,1130
20,Cc1ccc(C(=O)O/N=C(\N)c2ccccn2)c(Cl)c1,197
21,CNc1c2cccc(C)c2nc2c(C(=O)NCCN(C)C)cccc12,307
22,CC(=O)O[C@H]1C(=O)[C@@]2(C)[C@H]([C@H](OC(=O)c3ccccc3)[C@]3(O)C[C@H](OC(=O)[C@H](O)C(NC(=O)c4ccccc4)c4ccccc4)C(C)=C1C3(C)C)[C@]1(OC(C)=O)CO[C@@H]1C[C@@H]2O (some centres not stated),170
23,N#Cc1c(NC(=O)CSc2ncn[nH]2)sc2c1CCCCC2,82
24,CC(=O)N(/N=C1\Sc2ccccc2C1=O)c1ccc(C)cc1C,4720
25,O=C(Nc1nccs1)c1cc2c(s1)CCCCC2,128
26,COc1cc(C2C(C#N)=C(N)Oc3cc(N)ccc32)cc(OC)c1OC (configuration not stated),614

# — PubChem BioAssay AID504539 (Broad Institute, 2011)
